One data set deals with MOLT-4. As to the kind of experiment: NCI-60 five-dose assay. It is filed as cell-based, human. Conditions: MOLT-4, Leukemia.
The test system of the next data set is SR. As to the kind of experiment: NCI-60 five-dose assay. The class given is cell-based, human. The settings on record: SR, Leukemia.
A further data set has as its system A549/ATCC. As to the kind of experiment: NCI-60 five-dose assay. It is filed as cell-based, human. Conditions: A549/ATCC, Non-Small Cell Lung Cancer.
In a further data set the test system is HOP-62. As to the kind of experiment: NCI-60 five-dose assay. The class given is cell-based, human. Conditions: HOP-62, Non-Small Cell Lung Cancer.
In a further data set the test system is NCI-H522. The data set is described as follows: NCI-60 five-dose assay. The settings on record: NCI-H522, Non-Small Cell Lung Cancer. The class given is cell-based, human.
Another data set relates to COLO 205. The data set is described as follows: NCI-60 five-dose assay. It is filed as cell-based, human. The settings on record: COLO 205, Colon Cancer.
Another data set concerns HCT-116. The data set is described as follows: NCI-60 five-dose assay. It is filed as cell-based, human. The settings on record: HCT-116, Colon Cancer.
A further data set has as its system HT29. The data set is described as follows: NCI-60 five-dose assay. The class given is cell-based, human. Conditions: HT29, Colon Cancer.
Another data set concerns KM12. As to the kind of experiment: NCI-60 five-dose assay. The class given is cell-based, human. The settings on record: KM12, Colon Cancer.
For another data set, the system named is SW-620. As to the kind of experiment: NCI-60 five-dose assay. The class given is cell-based, human. Conditions: SW-620, Colon Cancer.
Another data set has as its system SF-539. As to the kind of experiment: NCI-60 five-dose assay. It is filed as cell-based, human. The settings on record: SF-539, CNS Cancer.
The test system of the next data set is U251. As to the kind of experiment: NCI-60 five-dose assay. The settings on record: U251, CNS Cancer. It is filed as cell-based, human.
The test system of the next data set is MALME-3M. As to the kind of experiment: NCI-60 five-dose assay. The class given is cell-based, human. The settings on record: MALME-3M, Melanoma.
The test system of another data set is MDA-MB-435. As to the kind of experiment: NCI-60 five-dose assay. The class given is cell-based, human. Conditions: MDA-MB-435, Melanoma.
The test system of the next data set is SK-MEL-28. As to the kind of experiment: NCI-60 five-dose assay. The class given is cell-based, human. Conditions: SK-MEL-28, Melanoma.
The next data set deals with SK-MEL-5. The data set is described as follows: NCI-60 five-dose assay. It is filed as cell-based, human. The settings on record: SK-MEL-5, Melanoma.
A further data set deals with SK-OV-3. As to the kind of experiment: NCI-60 five-dose assay. The class given is cell-based, human. The settings on record: SK-OV-3, Ovarian Cancer.
For a further data set, the system named is A498. As to the kind of experiment: NCI-60 five-dose assay. Conditions: A498, Renal Cancer. The class given is cell-based, human.
The next data set relates to SN12C. As to the kind of experiment: NCI-60 five-dose assay. It is filed as cell-based, human. The settings on record: SN12C, Renal Cancer.
Another data set deals with DU-145. The data set is described as follows: NCI-60 five-dose assay. It is filed as cell-based, human. Conditions: DU-145, Prostate Cancer.
A further data set deals with MCF7. As to the kind of experiment: NCI-60 five-dose assay. The class given is cell-based, human. The settings on record: MCF7, Breast Cancer.
The test system of another data set is HS 578T. The data set is described as follows: NCI-60 five-dose assay. Conditions: HS 578T, Breast Cancer. It is filed as cell-based, human.
In the next data set the test system is MDA-MB-468. As to the kind of experiment: NCI-60 five-dose assay. The settings on record: MDA-MB-468, Breast Cancer. The class given is cell-based, human.
The test system of another data set is Prostate Cancer subpanel. The data set is described as follows: NCI-60 five-dose assay, subpanel. The class given is cell-based, human. Conditions: Prostate Cancer.
The next data set deals with Breast Cancer subpanel. The data set is described as follows: NCI-60 five-dose assay, subpanel. The class given is cell-based, human. Conditions: Breast Cancer.
Where [1] appears, read: Homo sapiens, read-out: GI50 Conc. per Cell Line.
The mark [2] stands for this setting: Homo sapiens, read-out: LC50 (the source's name).
The mark [3] stands for this setting: Homo sapiens, average sensitivity of all subpanel cell lines, read-out: GI50 Subpanel MID b.

A word on the melting point: it is the temperature of the solid-liquid transition. By GI50 is commonly meant the concentration giving 50% growth inhibition. A word on the TGI: it is the concentration at which net growth stops. Low values mean more potent growth arrest, high ones less potent growth arrest. One may read the LC50 as the concentration that kills 50% of the test population.

On to `CN(C)c1ccc(C=NNC(=O)c2ccc3[nH]c(-c4ccc(Cl)cc4)nc3c2)cc1` [Compound 4b, N′-(4-(Dimethylamino)benzylidene)-2-(4-chlorophenyl)-1H-benzimidazole-5-carbohydrazide], for which the melting point was 283 to 285 °C.
As for `O=C(N/N=C/c1ccc(O)cc1)c1ccc2[nH]c(-c3ccc(Cl)cc3)nc2c1` [Compound 4i, N′-(4-Hydroxybenzylidene)-2-(4-chlorophenyl)-1H-benzimidazole-5-carbohydrazide], the melting point fell in the range of 263 to 265 °C.
As for `CCn1c(-c2ccc3[nH]c(-c4ccc(Cl)cc4)nc3c2)n[nH]c1=S` [Compound 6, 4-ethyl-5-(2-(4-chlorophenyl)-1H-benzimidazol-5-yl)-2,4-dihydro-3H-1,2,4triazole-3-thione], the melting point lay within 292 to 294 °C.
On the same count and under the same terms, to `O=C(NN=Cc1ccc(F)cc1)c1ccc2[nH]c(-c3ccc(Cl)cc3)nc2c1` [Compound 4d, N′-(4-Fluorobenzylidene)-2-(4-chlorophenyl)-1H-benzimidazole-5-carbohydrazide] belongs 285 to 287 °C.
For `COc1ccc(C=NNC(=O)c2ccc3[nH]c(-c4ccc(Cl)cc4)nc3c2)cc1` [Compound 4g, N′-(4-Methoxybenzylidene)-2-(4-chlorophenyl)-1H-benzimidazole-5-carbohydrazide], the 50% growth inhibitory concentration (GI50) in the data set on MOLT-4 (setting [1]) came out at 4.53 µM; in the data set with SR (setting [1]), 2.87 µM; in the data set with A549/ATCC (setting [1]), 2.46 µM; in the data set with HOP-62 (setting [1]) it was 1.88 µM; in the data set with NCI-H522 (setting [1]), 7.6 µM; with COLO 205 (setting [1]), 1.94 µM. In addition, the 50% growth inhibitory concentration (GI50) stood at 2.14 µM in the data set on HCT-116 (setting [1]); 3.09 µM in the data set on HT29 (Homo sapiens, HT-29, read-out: GI50 Conc. per Cell Line); 3.03 µM in the data set on KM12 (setting [1]); 2.41 µM in the data set on SW-620 (setting [1]); 1.73 µM in the data set with SF-539 (setting [1]); 2.43 µM in the data set with U251 (Homo sapiens, U-251, read-out: GI50 Conc. per Cell Line). The GI50 with MALME-3M (setting [1]) was 1.67 µM; in the data set with MDA-MB-435 (setting [1]) it was 3.11 µM; in the data set with SK-MEL-28 (setting [1]) it was 1.79 µM; in the data set on SK-MEL-5 (setting [1]), 1.89 µM; in the data set with SK-OV-3 (setting [1]), 2.3 µM; in the data set on A498 (setting [1]), 2.45 µM. In addition, the GI50 with SN12C (setting [1]) was 2.46 µM; in the data set on DU-145 (setting [1]), 1.98 µM; with MCF7 (setting [1]) it was 1.47 µM; with HS 578T (setting [1]) it was 2.3 µM; with MDA-MB-468 (setting [1]), 1.94 µM; in the data set on Prostate Cancer subpanel (setting [3]), 1.81 µM. Also, in the data set with Breast Cancer subpanel (setting [3]), the 50% growth inhibitory concentration (GI50) turned out to be 2.24 µM. For the same compound, the CC50 in the data set with MOLT-4 (setting [2]) was more than 100 µM; in the data set with SR (setting [2]), more than 100 µM; in the data set with A549/ATCC (setting [2]), 48.1 µM; in the data set on HOP-62 (setting [2]), 53.6 µM; with NCI-H522 (setting [2]), more than 100 µM; with COLO 205 (setting [2]), 33 µM. Also, the CC50 in the data set with HCT-116 (setting [2]) was 18.9 µM; with HT29 (Homo sapiens, HT-29, read-out: LC50 (the source's name)) it was more than 100 µM; in the data set on KM12 (setting [2]), more than 100 µM; in the data set on SF-539 (setting [2]), 6.92 µM; in the data set with U251 (Homo sapiens, U-251, read-out: LC50 (the source's name)), 30.4 µM; in the data set with MDA-MB-435 (setting [2]), 45.5 µM. The CC50 worked out at 6.35 µM in the data set on SK-MEL-28 (setting [2]); 7.95 µM with SK-MEL-5 (setting [2]); 59.1 µM with SK-OV-3 (setting [2]); 54.6 µM in the data set on A498 (setting [2]); 33.9 µM in the data set with SN12C (setting [2]); 14 µM with DU-145 (setting [2]). For the same compound, the CC50 in the data set with MCF7 (setting [2]) was 10 µM; in the data set with HS 578T (setting [2]), more than 100 µM. Also, the TGI amounted to 30.40 µM in the data set with MOLT-4; 15.40 µM in the data set on SR; 5.65 µM in the data set on A549/ATCC; 6.37 µM in the data set on HOP-62; 81.50 µM in the data set on NCI-H522; 5.43 µM with COLO 205. Moreover, the TGI is given as 5.12 µM in the data set with HCT-116; 22.10 µM with HT29; 9.58 µM in the data set with KM12; 5.58 µM in the data set with SW-620; 3.46 µM in the data set on SF-539; 5.22 µM with U251. Moreover, the TGI in the data set with MALME-3M came to 3.63 µM; in the data set on MDA-MB-435, 9.84 µM; in the data set on SK-MEL-28 it was 3.37 µM; in the data set on SK-MEL-5 it was 3.88 µM; in the data set with SK-OV-3, 12.80 µM; in the data set with A498, 9.87 µM. Also, the TGI in the data set on SN12C was determined as 6.79 µM; with DU-145 it was 4.61 µM; in the data set with MCF7 it was 3.84 µM; in the data set with HS 578T it was 5.64 µM; in the data set on MDA-MB-468, 4.55 µM. For the same compound, the LC50 with SW-620 (Homo sapiens) came to 31 µM; with MALME-3M (Homo sapiens), 7.9 µM. In the data set with MDA-MB-468 (Homo sapiens), this compound registered an LC50 (concentration killing 50% of cells) of 12.6 µM. Further, the “GI50 Selectivity Ratio (MID a/MID b)” value was 1.39 in the data set with Prostate Cancer subpanel and 1.12 with Breast Cancer subpanel.
For `O=C(NN=Cc1ccc(Cl)cc1Cl)c1ccc2[nH]c(-c3ccc(Cl)cc3)nc2c1` [Compound 4f, N′-(2,4-Dichlorobenzylidene)-2-(4-chlorophenyl)-1H-benzimidazole-5-carbohydrazide], the melting point fell in the range of 294 to 297 °C.
